Each block holds one molecule with its values, some of them ahead of it. The source made the active and inactive calls.
Legend:
Estrogen receptor = Estrogen receptor (Homo sapiens, UniProt P03372);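 note: potency for inhibiting coactivator peptide recruitment to the receptor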
[1] = target: T1, Calpain-2 catalytic subunit (Sus scrofa, UniProt P43367); test: pig calpain II inhibitor potency, dose response, biochemical, fluorogenic peptide substrate (AID 1420); format: functional
T1 sequence (P43367 whole entry): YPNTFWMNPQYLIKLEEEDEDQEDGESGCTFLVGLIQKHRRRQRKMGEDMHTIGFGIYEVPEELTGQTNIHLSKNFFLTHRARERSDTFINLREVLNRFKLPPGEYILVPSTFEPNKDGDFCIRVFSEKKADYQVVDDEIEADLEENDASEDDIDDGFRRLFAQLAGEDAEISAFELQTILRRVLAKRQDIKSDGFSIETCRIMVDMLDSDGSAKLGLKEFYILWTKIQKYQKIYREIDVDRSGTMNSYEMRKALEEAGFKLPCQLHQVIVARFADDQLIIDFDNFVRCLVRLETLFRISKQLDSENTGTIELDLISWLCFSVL

[2] = inhibitors of intracellular T. cruzi replication, confirmation, NIH3T3 host cells, beta-gal luminescence (AID 2044); format: functional, cell-based;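 note: intracellular parasites grown in NIH/3T3 mouse fibroblasts as host cells; luminescent beta-galactosidase reporter signal from transgenic T. cruzi replicating inside host cells; inhibitors lower the luminescence signal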
[3] = Counterscreen for AddAB inhibitors: absorbance-based bacterial cell-based high throughput dose response assay for inhibitors of bacterial viability. [Related pubchem assays (depositor defined):AID435030, AID449728, AID449731, AID488942, AID488955, AID488956]; format: functional
[4] = Luminescence Cell-Based Dose Confirmation HTS to Identify Inhibitors of Polyadenylation.; format: functional
[5] = growth suppression of beta-catenin-knockout colon cells, dose response, cell-based, HCT116, human colon tumor (AID 1045); format: functional;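 note: HCT116 colon tumor cells with beta catenin knocked out; cells exposed to compound for 60 hours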
[6] = growth suppression of PTEN-null colon cells, dose response, cell-based, HCT116 PTEN knockout (AID 1047); format: functional;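 note: HCT116 colon tumor cells with PTEN knocked out; cells exposed to compound for 60 hours before readout; potency for loss of cell viability measured by luminescence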
[7] = cytotoxicity toward NIH3T3 fibroblasts, dose response, counter-screen, cell-based, ATP luminescence, mouse fibroblasts (AID 2010); format: functional;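 note: cells exposed to compound for about 90 hours before reading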
[8] = C. albicans growth with fluconazole, confirmation, fluorescence, retest (AID 2467); format: functional, cell-based
[9] = NIH-3T3 fibroblast cytotoxicity, dose response, cytotoxicity control, cell-based, fluorescence, Alamar Blue, secondary assay (AID 2327); format: functional;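 note: NIH-3T3 mouse fibroblasts cultured with fluconazole at 8 µg/mL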
INS1 = test: beta cell apoptosis inhibitors, cytokine rescue, dose response, luminescence, retest (AID 449756); format: functional, cell-based; settings: Rattus norvegicus;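 note: cell death triggered by IL-1 beta plus TNF-alpha plus IFN-gamma mixture; protective hits raise ATP signal compared with cytokine alone wells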
[10] = target: Lytic switch protein BZLF1 (Epstein-Barr virus (strain B95-8) (HHV-4) (Human herpesvirus 4), UniProt P03206); test: EBV ZTA inhibitors, dose response, counter-screen for EBNA-1 inhibitor project, biochemical, fluorescence polarization, Epstein-Barr virus, 1536-well (AID 2377); design: species or system human gammaherpesvirus 4;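 note: fluorescence polarization of Cy5-labelled ZRE DNA probe bound by purified Zta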
Lytic switch protein BZLF1, sequence (P03206 whole entry): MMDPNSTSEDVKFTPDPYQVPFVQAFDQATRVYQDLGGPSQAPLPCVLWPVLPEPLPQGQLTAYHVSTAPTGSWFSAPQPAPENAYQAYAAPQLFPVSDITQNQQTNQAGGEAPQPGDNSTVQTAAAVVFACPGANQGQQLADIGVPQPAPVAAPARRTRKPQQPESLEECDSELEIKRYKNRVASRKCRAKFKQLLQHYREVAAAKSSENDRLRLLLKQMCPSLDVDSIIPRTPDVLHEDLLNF

[11] = target: Epstein-Barr nuclear antigen 1 (Epstein-Barr virus (strain B95-8) (HHV-4) (Human herpesvirus 4), UniProt P03211); test: EBNA-1 inhibitors, dose response, biochemical, fluorescence polarization, 1536-well (AID 2381); design: species or system human gammaherpesvirus 4;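 note: fluorescence polarization of a Cy5 DNA probe bound by EBNA-1 protein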
Epstein-Barr nuclear antigen 1, sequence (P03211 whole entry): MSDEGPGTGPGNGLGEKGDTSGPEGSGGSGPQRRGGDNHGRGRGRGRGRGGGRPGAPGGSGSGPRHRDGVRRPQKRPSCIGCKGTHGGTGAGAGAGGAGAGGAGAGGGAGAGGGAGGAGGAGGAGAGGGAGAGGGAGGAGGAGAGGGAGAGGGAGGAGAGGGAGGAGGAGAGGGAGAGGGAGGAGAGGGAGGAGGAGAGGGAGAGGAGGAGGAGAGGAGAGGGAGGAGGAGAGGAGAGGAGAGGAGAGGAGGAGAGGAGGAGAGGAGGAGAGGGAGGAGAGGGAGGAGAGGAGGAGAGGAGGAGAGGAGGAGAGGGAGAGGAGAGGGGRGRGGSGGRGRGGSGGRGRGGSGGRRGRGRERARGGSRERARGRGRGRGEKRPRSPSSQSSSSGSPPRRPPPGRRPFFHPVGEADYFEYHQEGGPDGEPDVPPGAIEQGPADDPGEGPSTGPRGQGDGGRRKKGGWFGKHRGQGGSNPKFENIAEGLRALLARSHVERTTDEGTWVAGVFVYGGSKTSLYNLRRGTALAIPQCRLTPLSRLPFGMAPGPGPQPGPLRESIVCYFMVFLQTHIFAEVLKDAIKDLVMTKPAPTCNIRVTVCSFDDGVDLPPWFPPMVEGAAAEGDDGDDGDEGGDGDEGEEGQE

NADPH oxidase 1 = NADPH oxidase 1 (Homo sapiens, UniProt Q9Y5S8); format: functional, cell-based;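 note: Cell-based assay with luminescence read-out, IC50 derived from inhibitor dose-response curves; intracellular ROS from endogenous NOX1 in intact HT29 colon cancer cells; potency of inhibitors that lower the ROS luminescence signal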
NADPH oxidase 1, sequence (Q9Y5S8 whole entry): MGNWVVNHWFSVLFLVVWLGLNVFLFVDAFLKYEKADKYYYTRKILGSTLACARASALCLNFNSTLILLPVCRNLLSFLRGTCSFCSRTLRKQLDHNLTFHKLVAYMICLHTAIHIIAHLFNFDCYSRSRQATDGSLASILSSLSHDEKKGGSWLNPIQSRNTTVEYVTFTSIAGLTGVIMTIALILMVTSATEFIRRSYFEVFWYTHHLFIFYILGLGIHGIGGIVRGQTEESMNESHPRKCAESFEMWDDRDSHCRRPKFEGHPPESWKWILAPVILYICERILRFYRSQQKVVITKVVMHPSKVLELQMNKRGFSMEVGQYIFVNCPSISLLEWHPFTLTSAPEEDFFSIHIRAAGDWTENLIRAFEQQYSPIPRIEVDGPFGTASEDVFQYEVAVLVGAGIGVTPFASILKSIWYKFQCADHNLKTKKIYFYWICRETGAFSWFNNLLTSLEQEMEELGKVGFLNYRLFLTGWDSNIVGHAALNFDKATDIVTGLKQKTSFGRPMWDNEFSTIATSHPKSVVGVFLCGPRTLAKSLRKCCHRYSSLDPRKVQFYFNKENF

Estrogen receptor, sequence (P03372 whole entry): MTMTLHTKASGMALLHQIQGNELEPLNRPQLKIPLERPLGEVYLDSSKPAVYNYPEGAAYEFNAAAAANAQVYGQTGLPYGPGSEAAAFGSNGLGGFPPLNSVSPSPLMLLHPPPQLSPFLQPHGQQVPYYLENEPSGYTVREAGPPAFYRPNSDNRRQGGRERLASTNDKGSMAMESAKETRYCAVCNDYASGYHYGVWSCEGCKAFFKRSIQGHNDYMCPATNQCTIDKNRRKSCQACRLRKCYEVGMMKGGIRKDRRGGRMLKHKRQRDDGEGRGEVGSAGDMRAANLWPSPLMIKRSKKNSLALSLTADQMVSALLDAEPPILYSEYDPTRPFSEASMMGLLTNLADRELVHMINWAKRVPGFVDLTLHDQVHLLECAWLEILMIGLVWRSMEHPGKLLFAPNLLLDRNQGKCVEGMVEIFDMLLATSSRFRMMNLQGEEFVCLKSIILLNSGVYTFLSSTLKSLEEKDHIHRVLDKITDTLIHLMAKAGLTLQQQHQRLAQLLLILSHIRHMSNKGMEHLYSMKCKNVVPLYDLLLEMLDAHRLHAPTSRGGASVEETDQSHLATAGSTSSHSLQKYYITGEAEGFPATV

IC50 (Estrogen receptor): 30 µM (active) | IC50 [1]: > 50 µM (not active)
SMILES: Cc1nnc(Oc2ccccc2F)c2ccccc12

SMILES: Cc1ccc2[nH]c(/C(C#N)=C\c3ccc([N+](=O)[O-])o3)nc2c1
EC50 [2]: 0.604 µM (active) | IC50 [3]: > 119 µM (inactive) | EC50 [4]: 5.85 µM (active) | EC50 [5]: 1.04 µM (active) | EC50 [6]: 1.02 µM (active) | EC50 [7]: > 60 µM (not active) | EC50 [8]: 0.387 µM (active) | EC50 [9]: 3.01 µM (inconclusive) | AC50 (INS1): 1.92 µM (active)

IC50 [10]: > 111 µM (not active) | IC50 [11]: 1.89 µM (active)
SMILES: CCOc1ccc(C(=O)NC(=S)Nc2ccc(NC(=O)C(C)C)cc2)cc1[N+](=O)[O-]

IC50 (NADPH oxidase 1): > 17 µM (not active)
SMILES: COc1ccc2c(Cl)c(C(=O)Oc3ccccc3[N+](=O)[O-])sc2c1

Source: ChEMBL document CHEMBL1201862, “PubChem BioAssay data set” (2004)
